Legend:
Assay type in all cases: cell-based
MDA-MB-231 cells [1] = test: Cell viability (MTT, photomicrographs) in MDA-MB-231 cells; details: 16 μM peptide, 24 hours
Protocol: (§1) After culturing 3×10^3 MDA-MB-231 cells in a 96-well plate for 24 hours under conditions of 37° C. and 5% C02, the cells were either untreated or treated with the peptides of Examples 1 to 28 at a concentration of 16 μM, respectively. Then, the cells were cultured for 24 hours under conditions of 37° C. and 5% CO2, and 10 μl of 3-(4,5-dimethylthiazol-2-yl)-2,5-diphenyltetrazolium bromide reagent was added to each well, followed by reaction for 1 hour. After the reaction was completed, the reagent was removed, 200 μl of dimethyl sulfoxide was added to each well, and the absorbance was measured to confirm cell viability.

MDA-MB-231 cells [2] = test: ADP-ribose level by ELISA in MDA-MB-231 cells; details: 0.2-32 μM peptide, 24 hours
Protocol: (§2) The peptides of Examples 1 to 28 of the present disclosure are designed to inhibit the action of poly ADP-ribose degradation enzyme. In Experimental Example 1, it was confirmed through cell experiments whether poly ADP-ribose was inhibited from being degraded by each of the peptides and accumulated in cancer cells.
5×10^3 MDA-MB-231 cells were divided into a group not treated with the Example peptide and a group treated with 0.2, 1, 2, 4, 8, 16, and 32 μM of the peptide of Example 5 (SEQ ID NO: 5), and cultured for 24 hours under conditions of 37° C. and 5% CO2 in Leibovitz's L-15 medium supplemented with 10% FBS, 100 units/ml penicillin, and 100 μg/ml streptomycin. The medium of the cultured cells was removed, and the samples were treated with RIPA buffer and 1% SDS. The prepared supernatant was used for ELISA analysis to detect and analyze ADP-ribose.

HCT116 cells [3] = test: Cell viability (MTT, photomicrographs) in HCT116 cells; details: 16 μM peptide, 24 hours
Protocol: as §1, with “HCT116” for “MDA-MB-231”, “CO2,” for “C02,”

HCT116 cells [4] = test: ADP-ribose level by ELISA in HCT116 cells; details: 0.2-32 μM peptide, 24 hours
Protocol: as §2
(§3) 5×10^5 HCT116 cells were divided into a group not treated with the peptide of Example and a group treated with 0.2, 1, 2, 4, 8, 16, and 32 μM of the peptide of Example 6 (SEQ ID NO: 6), and cultured for 24 hours under conditions of 37° C. and 5% CO2 in McCoy's 5A medium supplemented with 10% FBS, 100 units/ml penicillin, and 100 μg/ml streptomycin. The medium of the cultured cells was removed, and the samples were treated with RIPA buffer and 1% SDS. The prepared supernatant was used for ELISA analysis to detect and analyze ADP-ribose.

Aspc-1 cells [5] = test: Cell viability (MTT, photomicrographs) in Aspc-1 cells; details: 16 μM peptide, 24 hours
Protocol: as §1, with “Aspc-1” for “MDA-MB-231”, “CO2,” for “C02,”

Aspc-1 cells [6] = test: ADP-ribose level by ELISA in Aspc-1 cells; details: 0.2-32 μM peptide, 24 hours
Protocol: as §2
as §3, with “5×10^5 Aspc-1” for “5×10^5 HCT116”, “Example 3” for “Example 6”, “NO: 3),” for “NO: 6),”, “in RPMI-1640” for “in McCoy's 5A”

Hep G2 cells [7] = test: Cell viability (MTT, photomicrographs) in Hep G2 cells; details: 16 μM peptide, 24 hours
Protocol: 2-4. Change in viability in Hep G2 cells according to treatment with ADP-ribose binding peptide After culturing 3×10^3 Hep G2 cells in a 96-well plate for 24 hours under conditions of 37° C. and 5% CO2, the cells were either untreated or treated with the peptides of Examples 1 to 28 at a concentration of 16 μM, respectively. Then, the cells were cultured for 24 hours under conditions of 37° C. and 5% CO2, and 10 μl of 3-(4,5-dimethylthiazol-2-yl)-2,5-diphenyltetrazolium bromide reagent was added to each well, followed by reaction for 1 hour. After the reaction was completed, the reagent was removed, 200 μl of dimethyl sulfoxide was added to each well, and the absorbance was measured to confirm cell viability.

Hep G2 cells [8] = test: ADP-ribose level by ELISA in Hep G2 cells; details: 0.2-32 μM peptide, 24 hours
Protocol: as §2
as §3, with “5×10^5 Hep G2” for “5×10^5 HCT116”, “Example 4” for “Example 6”, “NO: 4),” for “NO: 6),”, “in EMEM” for “in McCoy's 5A”

Caki-1 cells [9] = test: ADP-ribose level by ELISA in Caki-1 cells; details: 0.2-32 μM peptide, 24 hours
Protocol: as §2
as §3, with “5×10^5 Caki-1” for “5×10^5 HCT116”, “Example 7” for “Example 6”, “NO: 7),” for “NO: 6),”

Caki-1 cells [10] = test: Cell viability (MTT, photomicrographs) in Caki-1 cells; details: 16 μM peptide, 24 hours
Protocol: as §1, with “Caki-1” for “MDA-MB-231”, “CO2,” for “C02,”

H1975 cells [11] = test: Cell viability (MTT, photomicrographs) in H1975 cells; details: 16 μM peptide, 24 hours
Protocol: as §1, with “H1975” for “MDA-MB-231”, “CO2,” for “C02,”

H1975 cells [12] = test: ADP-ribose level by ELISA in H1975 cells; details: 0.2-32 μM peptide, 24 hours
Protocol: as §2
as §3, with “5×10^5 H1975” for “5×10^5 HCT116”, “Example 2” for “Example 6”, “NO: 2),” for “NO: 6),”, “in RPMI-1640” for “in McCoy's 5A”

U-87MG cells = test: Viability of U-87MG cells, bevacizumab alone or combined with peptides; parameters: dose or concentration left out as unconfirmed; details: bevacizumab alone, 24 hours
Protocol: as §1, with “U-87MG” for “MDA-MB-231”, “CO2,” for “C02,”, “treated with 18 mM of bevacizumab alone” for “either untreated”, “in combination” for “treated”, “14” for “28”, “0.2, 1 or 8 μM.” for “16 μM, respectively.”

FCYLIYFNSMSQMNRQTRRRRRLRR (ADP-ribose binding peptide) [Example 5]
cancer cell growth and survival (MDA-MB-231 cells [1]): inhibited from growing and killed | amount of increase in ADP-ribose (fold change) compared to the control group (MDA-MB-231 cells [2]): significant increase in the amount of ADP-ribose in a concentration-dependent manner

FSYVIDENTMGQINRQTQRQRRVRR [Example 6]
cancer cell growth and survival (HCT116 cells [3]): inhibited from growing and killed | amount of increase in ADP-ribose (fold change) compared to the control group (HCT116 cells [4]): significant increase in the amount of ADP-ribose in a concentration-dependent manner

APYIIDLPSWTQFRQDIGTMRAVRR (APYIIDLPSWTQFRQDTGTMRAVRR; ADP-ribose binding peptide) [Example 3]
cancer cell growth and survival (Aspc-1 cells [5]): inhibited from growing and killed | amount of increase in ADP-ribose (fold change) compared to the control group (Aspc-1 cells [6]): significant increase in the amount of ADP-ribose in a concentration-dependent manner

FLYVADLENMVQYRRNEHGRRRKIKR (ADP-ribose binding peptide) [Example 11]
cancer cell growth and survival (Hep G2 cells [7]): inhibited from growing and killed | amount of increase in ADP-ribose (fold change) compared to the control group (Hep G2 cells [8]): significant increase in the amount of ADP-ribose in a concentration-dependent manner

TAYEASVCDYLEQQVARGN (ADP-ribose binding peptide) [Example 14]
amount of increase in ADP-ribose (fold change) compared to the control group (Caki-1 cells [9]): significant increase in the amount of ADP-ribose in a concentration-dependent manner | cancer cell growth and survival (Caki-1 cells [10]): inhibited from growing and killed

RRYTVQFTTMVQVNEETGNRRPVM (ADP-ribose binding peptide) [Example 9]
cancer cell growth and survival (H1975 cells [11]): inhibited from growing and killed | amount of increase in ADP-ribose (fold change) compared to the control group (H1975 cells [12]): significant increase in the amount of ADP-ribose in a concentration-dependent manner

RVYTIDENSMQQINEDTGTARAIQR (RVYTIDFNSMQQINEDTGTARAIQR; ADP-ribose binding peptide) [Example 4]
cancer cell growth and survival (Hep G2 cells [7]): inhibited from growing and killed | amount of increase in ADP-ribose (fold change) compared to the control group (Hep G2 cells [8]): significant increase in the amount of ADP-ribose in a concentration-dependent manner

APYIIDLQSMNQFRQDIGTLRPVRR (APYIIDLQSMNQFRQDTGTLRPVRR; ADP-ribose binding peptide) [Example 2]
cancer cell growth and survival (H1975 cells [11]): inhibited from growing and killed | amount of increase in ADP-ribose (fold change) compared to the control group (H1975 cells [12]): significant increase in the amount of ADP-ribose in a concentration-dependent manner

RHYTVNLNTYTATDTKGHSLSVQR (ADP-ribose binding peptide) [Example 12]
cancer cell growth and survival (MDA-MB-231 cells [1]): inhibited from growing and killed | amount of increase in ADP-ribose (fold change) compared to the control group (MDA-MB-231 cells [2]): significant increase in the amount of ADP-ribose in a concentration-dependent manner

WIWYWKNESGTWIQYGEEKDKRKN (ADP-ribose binding peptide) [Example 10]
cancer cell growth and survival (Aspc-1 cells [5]): inhibited from growing and killed | amount of increase in ADP-ribose (fold change) compared to the control group (Aspc-1 cells [6]): significant increase in the amount of ADP-ribose in a concentration-dependent manner

GRYDVHLGERMRYAVYWDELASEVRR (ADP-ribose binding peptide) [Example 13]
cancer cell growth and survival (HCT116 cells [3]): inhibited from growing and killed | amount of increase in ADP-ribose (fold change) compared to the control group (HCT116 cells [4]): significant increase in the amount of ADP-ribose in a concentration-dependent manner

bevacizumab
viable cancer cells (U-87MG cells): about 49%

— patent US20230416316A1, “ADP-RIBOSE BINDING PEPTIDES WITH ANTI-CANCER ACTIVITY AND USE THEREOF” (PearlsInMires Co., Ltd., priority 2021, published 2023)
